Earlier results, collected in article PMC2866172 (Journal of medicinal chemistry, 2010).

System: MTB enoyl-ACP reductase InhA
Conditions: on MTB enoyl-ACP reductase InhA; cited from earlier work

Which Residence time does the source give for `NC(=O)C1=CN([C@@H]2O[C@H](COP(=O)(O)OP(=O)(O)OC[C@H]3O[C@@H](n4cnc5c(N)ncnc54)[C@H](O)[C@@H]3O)[C@@H](O)[C@H]2O)C=C[C@@H]1C(=O)c1ccncc1` [INH-NAD adduct] here?
Its Residence time is 60 min.
